From patent US10099993B2, “Metabotropic glutamate receptor positive allosteric modulators (PAMS) and uses thereof” (Sanford-Burnham Medical Research Institute, priority 2014, dated 2018)

Tests used:
mGlu3 = mGlu3 (Rattus norvegicus (Rat), UniProt P31422); test: mGlu3 GIRK thallium flux assay; details: for EC50: read-out: mGlu3 PAM EC50, PAM mode, test compound, then EC20 glutamate […] later in the presence of thallium, mean ± SEM; for Emax: read-out: mGlu3 PAM Max;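 for all read-outs here: kinetic fluorescence slope read shortly after thallium plus agonist addition, scaled between vehicle and maximal agonist control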
mGlu3, sequence (P31422 23-879): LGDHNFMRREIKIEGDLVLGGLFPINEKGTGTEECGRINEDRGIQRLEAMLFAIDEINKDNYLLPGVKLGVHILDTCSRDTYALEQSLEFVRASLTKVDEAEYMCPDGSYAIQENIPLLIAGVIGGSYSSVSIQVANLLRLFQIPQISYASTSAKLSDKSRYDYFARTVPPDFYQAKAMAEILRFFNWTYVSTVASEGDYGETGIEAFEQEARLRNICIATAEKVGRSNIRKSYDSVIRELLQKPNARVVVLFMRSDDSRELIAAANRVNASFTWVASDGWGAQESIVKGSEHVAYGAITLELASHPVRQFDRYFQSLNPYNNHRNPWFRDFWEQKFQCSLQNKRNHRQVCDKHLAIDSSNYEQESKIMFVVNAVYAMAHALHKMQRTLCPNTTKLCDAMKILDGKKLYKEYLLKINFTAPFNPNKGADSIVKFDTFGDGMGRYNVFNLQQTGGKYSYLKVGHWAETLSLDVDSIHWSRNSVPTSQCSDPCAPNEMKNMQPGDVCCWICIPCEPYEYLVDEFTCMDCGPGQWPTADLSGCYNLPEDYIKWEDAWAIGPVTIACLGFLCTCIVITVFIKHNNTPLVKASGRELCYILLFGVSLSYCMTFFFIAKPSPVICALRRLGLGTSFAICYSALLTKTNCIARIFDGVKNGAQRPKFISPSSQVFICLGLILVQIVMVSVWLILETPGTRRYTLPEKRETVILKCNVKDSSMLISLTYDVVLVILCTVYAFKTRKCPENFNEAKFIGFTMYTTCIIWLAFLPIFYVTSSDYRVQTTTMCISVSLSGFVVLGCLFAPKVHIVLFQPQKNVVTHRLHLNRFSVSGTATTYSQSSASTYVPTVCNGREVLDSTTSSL

mGlu2 = mGlu2 (Rattus norvegicus (Rat), UniProt P31421); test: mGlu2 GIRK thallium flux assay; details: for EC50: read-out: mGlu2 PAM EC50, PAM mode, test compound, then EC20 glutamate […] later in the presence of thallium, mean ± SEM, at least three experiments; for Emax: read-out: mGlu2 PAM Max;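 for all read-outs here: Cell-based assay, rate of fluorescence rise right after thallium plus agonist addition read on a kinetic imaging plate reader, normalized to vehicle and maximal agonist control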
mGlu2, sequence (P31421 19-872): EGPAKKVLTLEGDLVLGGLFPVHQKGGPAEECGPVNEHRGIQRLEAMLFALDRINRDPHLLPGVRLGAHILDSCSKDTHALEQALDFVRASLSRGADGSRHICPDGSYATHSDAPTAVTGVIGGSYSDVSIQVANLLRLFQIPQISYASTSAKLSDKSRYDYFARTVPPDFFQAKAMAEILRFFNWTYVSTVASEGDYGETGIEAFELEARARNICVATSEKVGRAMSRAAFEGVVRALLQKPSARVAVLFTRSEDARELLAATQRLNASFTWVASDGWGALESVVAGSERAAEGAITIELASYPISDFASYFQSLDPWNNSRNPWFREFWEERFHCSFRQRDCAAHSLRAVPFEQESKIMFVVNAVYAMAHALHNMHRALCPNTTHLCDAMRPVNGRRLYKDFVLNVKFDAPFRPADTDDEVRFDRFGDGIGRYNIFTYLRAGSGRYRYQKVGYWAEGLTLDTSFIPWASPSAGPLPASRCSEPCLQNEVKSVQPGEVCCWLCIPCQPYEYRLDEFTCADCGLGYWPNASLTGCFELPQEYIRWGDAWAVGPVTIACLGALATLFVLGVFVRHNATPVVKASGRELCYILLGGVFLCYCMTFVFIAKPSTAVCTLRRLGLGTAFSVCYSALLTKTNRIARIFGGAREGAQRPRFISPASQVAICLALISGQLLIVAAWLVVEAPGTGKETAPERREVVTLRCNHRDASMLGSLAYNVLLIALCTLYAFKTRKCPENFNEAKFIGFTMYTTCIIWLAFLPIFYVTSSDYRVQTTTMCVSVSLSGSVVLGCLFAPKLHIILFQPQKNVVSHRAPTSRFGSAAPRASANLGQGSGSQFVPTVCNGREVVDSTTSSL

SMILES	EC50 (mGlu3) [µM]	Emax (mGlu3) [%]	EC50 (mGlu2) [µM]	Emax (mGlu2) [%]
Cc1c(OCc2cccc(-c3cnc(C(=O)O)cn3)c2)ccc(C(=O)CC(C)(C)C)c1O [Compound 181, 5-(3-((4-(3,3-Dimethylbutanoyl)-3-hydroxy-2-methylphenoxy)methyl)phenyl)pyrazine-2-carboxylic acid]	4.28 ± 0.064	106 ± 2.1	2.134 ± 0.008	105 ± 3.4
Cc1c(OCCCCOc2ccccn2)ccc(C(=O)CC(C)C)c1C [Compound 183]	> 30	–	> 10	–
Cc1c(OCCCCSc2ccccn2)ccc(C(=O)CC(C)C)c1O [Compound 184]	> 30	–	> 10	–
Cc1c(OCCCCOc2ccccn2)ccc(C(=O)CC(C)C)c1O [Compound 185]	> 30	22.4 ± 4.3	2.79 ± 0.102	66.3 ± 0.6
Cc1c(OCCCCOc2ccccn2)ccc(C(=O)CC2CCCC2)c1O [Compound 186]	> 30	–	> 10	–
Cc1c(OCCCCOCc2cccc(-c3cccc(C(=O)O)c3)c2)ccc(C(=O)CC(C)(C)C)c1O [Compound 187, 3′-((4-(4-(3,3-Dimethylbutanoyl)-3-hydroxy-2-methylphenoxy)butoxy)methyl)-[1,1′-biphenyl]-3-carboxylic acid]	3.07 ± 0.632	74.1 ± 7.8	1.57 ± 0.297	93.4 ± 3.4
Cc1c(OCCCCSc2ccncc2)ccc(C(=O)CC2CCCC2)c1C [Compound 188]	> 30	–	> 30	–
Cc1c(OCCCCSc2ccncc2)ccc(C(=O)CC(C)C)c1C [Compound 189]	> 30	–	> 30	–
CCCc1c(OCCCCOc2ccc(C(=O)O)cc2OC)ccc(C(C)=O)c1O [Compound 190, 4-(4-(4-Acetyl-3-hydroxy-2-propylphenoxy)butoxy)-3-methoxybenzoic acid]	–	12.1 ± 12.8	–	64.9 ± 5.1
CCCc1c(OCCCCOc2ccc(C(=O)O)cc2C)ccc(C(C)=O)c1O [Compound 191, 4-(4-(4-Acetyl-3-hydroxy-2-propylphenoxy)butoxy)-3-methylbenzoic acid]	–	0.1 ± 7.7	–	43.8 ± 5.4
CC(C)(C)CC(=O)c1ccc(OCc2cccc(-c3cccc(C(=O)O)c3)c2)c(I)c1O [Compound 192, 3′-((4-(3,3-Dimethylbutanoyl)-3-hydroxy-2-iodophenoxy)methyl)-[1,1′-biphenyl]-3-carboxylic acid]	–	62.6 ± 9.7	–	82 ± 5.1
CC(C)(C)CC(=O)c1ccc(OCc2cccc(-c3cccc(C(=O)O)c3)c2)c(Br)c1O [Compound 193, 3′-((2-Bromo-4-(3,3-dimethylbutanoyl)-3-hydroxyphenoxy)methyl)-[1,1′-biphenyl]-3-carboxylic acid]	–	74 ± 9.5	–	79.5 ± 20.8
Cc1c(OCCCCOc2ccccn2)ccc(C(=O)CC2CCCC2)c1C [Compound 194]	> 30	–	> 10	–
Cc1c(OCCCCOc2ccc(C#N)cc2)ccc(C(=O)CC2CCCC2)c1C [compound 76]	> 30	–	> 30	–
Cc1c(OCCCCOc2ccc(C#N)cc2)ccc(C(=O)CC(C)C)c1C [compound 77]	> 30	–	> 30	–
COC(=O)CCc1cc(OCCCCOc2ccc(C(=O)CC(C)C)c(O)c2C)ccc1O [compound 85]	> 30	–	> 10	–
COC(=O)CCc1cc(OCCCCOc2ccc(C(=O)CC3CCCC3)c(O)c2C)ccc1O [compound 86]	> 30	–	> 10	–
COc1ccc(B2OC(C)(C)C(C)(C)O2)cc1OCCCCOc1ccc(C(=O)CC(C)(C)C)c(O)c1C [compound 87, 1-(2-Hydroxy-4-(4-(2-methoxy-5-(4,4,5,5-tetramethyl-1,3,2-dioxaborolan-2-yl)phenoxy)butoxy)-3-methylphenyl)-3,3-dimethylbutan-1-one]	–	24.9 ± 9.6	–	49.5 ± 3.5

SMILES	EC50 (mGlu3) [µM]	Emax (mGlu3) [%]	EC50 (mGlu2) [µM]	Emax (mGlu2) [%]
COc1cc(C(=O)NO)ccc1OCCCCOc1ccc(C(=O)CC(C)(C)C)c(O)c1C [compound 88, 4-(4-(4-(3,3-Dimethylbutanoyl)-3-hydroxy-2-methylphenoxy)butoxy)-N-hydroxy-3-methoxybenzamide]	5.46 ± 0.184	53.5 ± 10.6	2.42 ± 0.278	86.4 ± 2.6
CONC(=O)c1ccc(OC)c(OCCCCOc2ccc(C(=O)CC(C)(C)C)c(O)c2C)c1 [compound 90, 3-(4-(4-(3,3-Dimethylbutanoyl)-3-hydroxy-2-methylphenoxy)butoxy)-N,4-dimethoxybenzamide]	6.6 ± 1.45	78.7 ± 6.2	3.89 ± 0.317	82.4 ± 3.4
COc1ccc(C#N)cc1OCCCCOc1ccc(C(=O)CC(C)(C)C)c(O)c1C [compound 91, 3-(4-(4-(3,3-Dimethylbutanoyl)-3-hydroxy-2-methylphenoxy)butoxy)-4-methoxybenzonitrile]	> 30	33.7 ± 7.4	> 10	48.2 ± 7.4
COc1ccc(-c2nnn[nH]2)cc1OCCCCOc1ccc(C(=O)CC(C)(C)C)c(O)c1C [compound 92, 1-(2-Hydroxy-4-(4-(2-methoxy-5-(1H-tetrazol-5-yl)phenoxy)butoxy)-3-methylphenyl)-3,3-dimethylbutan-1-one]	–	96.7 ± 4	–	91.2 ± 1.1
COc1ccc(C(=O)NS(C)(=O)=O)cc1OCCCCOc1ccc(C(=O)CC(C)(C)C)c(O)c1C [compound 93, 3-(4-(4-(3,3-Dimethylbutanoyl)-3-hydroxy-2-methylphenoxy)butoxy)-4-methoxy-N-(methylsulfonyl)benzamide]	0.265 ± 0.05	110 ± 1.3	0.25 ± 0.055	98.1 ± 1.1
Cc1c(OCCCCOc2ccc3c(c2)B(O)OC3)ccc(C(=O)CC(C)(C)C)c1O [compound 94, 1-(2-Hydroxy-4-(4-((1-hydroxy-1,3-dihydrobenzo [c][1,2]oxaborol-6-yl)oxy)butoxy)-3-methylphenyl)-3,3-dimethylbutan-1-one]	–	94 ± 3.8	–	83.9 ± 3.4
COc1ccc(B(O)O)cc1OCCCCOc1ccc(C(=O)CC(C)(C)C)c(O)c1C [compound 95, (3-(4-(4-(3,3-Dimethylbutanoyl)-3-hydroxy-2-methylphenoxy)butoxy)-4-methoxyphenyl)boronic acid]	> 30	26.2 ± 11.7	3.01 ± 0.988	27.5 ± 2.7
COc1ccc(C(=O)O)cc1OCCCCOc1ccc(C(=O)CCC(C)(C)C)c(O)c1C [compound 96, 3-(4-(4-(4,4-Dimethylpentanoyl)-3-hydroxy-2-methylphenoxy)butoxy)-4-methoxybenzoic acid]	–	95.3 ± 5	–	88.6 ± 0.9
COc1ccc(/C(N)=N/O)cc1OCCCCOc1ccc(C(=O)CC(C)(C)C)c(O)c1C [compound 97, (Z)-3-(4-(4-(3,3-Dimethylbutanoyl)-3-hydroxy-2-methylphenoxy)butoxy)-N′-hydroxy-4-methoxybenzimidamide]	> 30	24.4 ± 4.7	> 10	57.2 ± 1.4
COc1ccc(-c2noc(=O)[nH]2)cc1OCCCCOc1ccc(C(=O)CC(C)(C)C)c(O)c1C [compound 98, 3-(3-(4-(4-(3,3-Dimethylbutanoyl)-3-hydroxy-2-methylphenoxy)butoxy)-4-methoxyphenyl)-1,2,4-oxadiazol-5(4H)-one]	1.23 ± 0.185	102 ± 4.7	0.681 ± 0.09	101 ± 2.9
COc1ccc(-c2noc(=S)[nH]2)cc1OCCCCOc1ccc(C(=O)CC(C)(C)C)c(O)c1C [compound 99, 1-(2-Hydroxy-4-(4-(2-methoxy-5-(5-thioxo-4,5-dihydro-1,2,4-oxadiazol-3-yl)phenoxy)butoxy)-3-methylphenyl)-3,3-dimethylbutan-1-one]	1.15 ± 0.307	63.6 ± 5	1.03 ± 0.07	81
COc1ccc(-c2nsc(=O)[nH]2)cc1OCCCCOc1ccc(C(=O)CC(C)(C)C)c(O)c1C [compound 100, 3-(3-(4-(4-(3,3-Dimethylbutanoyl)-3-hydroxy-2-methylphenoxy)butoxy)-4-methoxyphenyl)-1,2,4-thiadiazol-5(4H)-one]	> 30	33.9 ± 10.1	2.22 ± 0.709	68.1 ± 0.9
COc1ccc(C(=O)N2CCOCC2)cc1OCCCCOc1ccc(C(=O)CC(C)(C)C)c(O)c1C [compound 101, 1-(2-Hydroxy-4-(4-(2-methoxy-5-(morpholine-4-carbonyl)phenoxy)butoxy)-3-methylphenyl)-3,3-dimethylbutan-1-one]	0.741 ± 0.006	132 ± 5	0.875 ± 0.003	113 ± 1.2
CNC(=O)c1ccc(OC)c(OCCCCOc2ccc(C(=O)CC(C)(C)C)c(O)c2C)c1 [compound 102, 3-(4-(4-(3,3-Dimethylbutanoyl)-3-hydroxy-2-methylphenoxy)butoxy)-4-methoxy-N-methylbenzamide]	> 10	39.2 ± 5.2	5.16 ± 0.082	70.9 ± 2.3
CCN(CC)C(=O)c1ccc(OC)c(OCCCCOc2ccc(C(=O)CC(C)(C)C)c(O)c2C)c1 [compound 103, 3-(4-(4-(3,3-Dimethylbutanoyl)-3-hydroxy-2-methylphenoxy)butoxy)-N,N-diethyl-4-methoxybenzamide]	0.497 ± 0.006	111 ± 3.4	0.608 ± 0.01	96.4 ± 2.1
COc1ccc(C(=O)Nc2ccccc2)cc1OCCCCOc1ccc(C(=O)CC(C)(C)C)c(O)c1C [compound 104, 3-(4-(4-(3,3-Dimethylbutanoyl)-3-hydroxy-2-methylphenoxy)butoxy)-4-methoxy-N-phenylbenzamide]	–	27 ± 3.4	–	23.1 ± 1.4
COc1ccc(C(=O)N2CCNCC2)cc1OCCCCOc1ccc(C(=O)CC(C)(C)C)c(O)c1C [compound 105, 1-(2-Hydroxy-4-(4-(2-methoxy-5-(piperazine-1-carbonyl)phenoxy)butoxy)-3-methylphenyl)-3,3-dimethylbutan-1-one]	> 10	49.7 ± 3.9	> 10	67.4 ± 1.9
